Key:
[1] = molecular target: T1, Adrenergic receptor alpha-2 (Rattus norvegicus, UniProt P22086+P19328+P22909); assay: Alpha-2-adrenolytic activity was assessed from the ability to inhibit [3H]yohimbine binding to rat cerebral cortex preparation; assay type: tissue-based
T1 sequence (P22086 whole entry): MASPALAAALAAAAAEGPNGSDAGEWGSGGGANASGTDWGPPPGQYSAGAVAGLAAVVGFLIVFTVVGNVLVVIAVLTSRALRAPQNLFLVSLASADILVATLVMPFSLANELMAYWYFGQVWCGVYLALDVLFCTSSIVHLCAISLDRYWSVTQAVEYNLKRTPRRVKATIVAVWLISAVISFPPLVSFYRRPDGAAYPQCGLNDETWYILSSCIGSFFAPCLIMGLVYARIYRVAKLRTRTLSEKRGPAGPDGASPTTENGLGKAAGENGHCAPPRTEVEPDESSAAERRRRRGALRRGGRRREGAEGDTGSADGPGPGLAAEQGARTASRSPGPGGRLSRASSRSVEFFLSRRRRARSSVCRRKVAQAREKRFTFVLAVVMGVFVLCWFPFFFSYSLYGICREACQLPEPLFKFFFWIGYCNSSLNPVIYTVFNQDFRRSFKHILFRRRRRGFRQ
T1 sequence (P19328 whole entry): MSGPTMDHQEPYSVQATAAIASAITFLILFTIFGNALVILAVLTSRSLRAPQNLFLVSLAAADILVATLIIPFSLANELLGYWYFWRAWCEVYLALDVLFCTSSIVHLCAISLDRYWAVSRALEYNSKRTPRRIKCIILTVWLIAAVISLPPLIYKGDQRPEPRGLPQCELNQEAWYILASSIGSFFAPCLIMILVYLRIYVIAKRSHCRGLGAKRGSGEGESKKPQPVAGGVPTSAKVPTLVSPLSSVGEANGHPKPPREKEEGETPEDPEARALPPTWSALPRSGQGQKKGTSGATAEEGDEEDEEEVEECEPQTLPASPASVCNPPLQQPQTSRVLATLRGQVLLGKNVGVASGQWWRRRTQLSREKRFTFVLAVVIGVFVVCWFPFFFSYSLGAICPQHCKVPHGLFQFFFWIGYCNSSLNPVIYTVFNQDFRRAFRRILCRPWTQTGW
T1 sequence (P22909 whole entry): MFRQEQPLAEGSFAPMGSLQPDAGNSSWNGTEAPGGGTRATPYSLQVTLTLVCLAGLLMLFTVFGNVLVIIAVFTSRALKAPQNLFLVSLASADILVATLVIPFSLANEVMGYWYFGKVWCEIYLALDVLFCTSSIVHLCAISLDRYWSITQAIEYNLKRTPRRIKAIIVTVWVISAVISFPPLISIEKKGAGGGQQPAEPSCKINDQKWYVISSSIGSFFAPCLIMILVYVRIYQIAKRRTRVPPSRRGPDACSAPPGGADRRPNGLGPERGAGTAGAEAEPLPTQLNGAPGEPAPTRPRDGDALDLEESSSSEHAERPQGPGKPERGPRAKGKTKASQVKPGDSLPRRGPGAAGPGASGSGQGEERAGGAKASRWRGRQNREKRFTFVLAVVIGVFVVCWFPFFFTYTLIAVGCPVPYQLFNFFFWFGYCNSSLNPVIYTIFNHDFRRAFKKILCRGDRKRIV

Sus scrofa = species on record: Sus scrofa; assay: Calcium antagonistic activity was evaluated from the inhibition of CaCl2-induced contraction of depolarized pig coronary artery; assay type: functional; details: Sus scrofa, Coronary artery
[2] = molecular target: T2, Adrenergic receptor alpha-1 (Rattus norvegicus, UniProt P15823+P23944+P43140); assay: Alpha-1-adrenolytic activity was assessed in vitro from the ability to inhibit norepinephrine-induced contraction of rat aorta preparation
T2 sequence (P15823 whole entry): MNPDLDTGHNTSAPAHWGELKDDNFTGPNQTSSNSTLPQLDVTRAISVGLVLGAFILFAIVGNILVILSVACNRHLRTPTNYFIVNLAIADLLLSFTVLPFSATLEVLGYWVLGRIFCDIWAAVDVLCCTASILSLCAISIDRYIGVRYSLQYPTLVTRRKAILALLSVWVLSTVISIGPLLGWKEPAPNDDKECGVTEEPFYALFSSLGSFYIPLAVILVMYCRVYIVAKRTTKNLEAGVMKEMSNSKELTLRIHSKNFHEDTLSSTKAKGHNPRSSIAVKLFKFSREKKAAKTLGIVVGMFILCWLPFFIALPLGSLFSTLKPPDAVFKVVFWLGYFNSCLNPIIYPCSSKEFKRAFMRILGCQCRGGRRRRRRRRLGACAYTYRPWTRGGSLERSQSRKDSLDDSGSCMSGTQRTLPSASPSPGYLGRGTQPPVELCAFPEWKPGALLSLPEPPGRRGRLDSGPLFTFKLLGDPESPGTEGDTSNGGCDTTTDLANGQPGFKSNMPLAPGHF
T2 sequence (P23944 whole entry): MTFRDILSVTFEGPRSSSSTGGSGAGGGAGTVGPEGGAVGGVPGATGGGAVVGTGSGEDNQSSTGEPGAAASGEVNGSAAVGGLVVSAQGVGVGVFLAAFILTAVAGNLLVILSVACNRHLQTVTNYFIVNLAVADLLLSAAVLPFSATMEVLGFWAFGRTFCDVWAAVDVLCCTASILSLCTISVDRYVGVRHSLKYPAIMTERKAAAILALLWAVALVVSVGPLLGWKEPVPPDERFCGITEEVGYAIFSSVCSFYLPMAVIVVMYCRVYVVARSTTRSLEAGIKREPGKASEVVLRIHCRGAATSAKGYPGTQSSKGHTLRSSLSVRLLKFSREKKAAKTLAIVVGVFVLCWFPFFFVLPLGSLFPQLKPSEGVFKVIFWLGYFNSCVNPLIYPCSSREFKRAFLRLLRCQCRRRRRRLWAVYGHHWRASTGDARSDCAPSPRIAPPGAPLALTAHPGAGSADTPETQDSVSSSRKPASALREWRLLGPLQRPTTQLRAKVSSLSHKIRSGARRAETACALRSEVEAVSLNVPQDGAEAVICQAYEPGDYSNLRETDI
T2 sequence (P43140 whole entry): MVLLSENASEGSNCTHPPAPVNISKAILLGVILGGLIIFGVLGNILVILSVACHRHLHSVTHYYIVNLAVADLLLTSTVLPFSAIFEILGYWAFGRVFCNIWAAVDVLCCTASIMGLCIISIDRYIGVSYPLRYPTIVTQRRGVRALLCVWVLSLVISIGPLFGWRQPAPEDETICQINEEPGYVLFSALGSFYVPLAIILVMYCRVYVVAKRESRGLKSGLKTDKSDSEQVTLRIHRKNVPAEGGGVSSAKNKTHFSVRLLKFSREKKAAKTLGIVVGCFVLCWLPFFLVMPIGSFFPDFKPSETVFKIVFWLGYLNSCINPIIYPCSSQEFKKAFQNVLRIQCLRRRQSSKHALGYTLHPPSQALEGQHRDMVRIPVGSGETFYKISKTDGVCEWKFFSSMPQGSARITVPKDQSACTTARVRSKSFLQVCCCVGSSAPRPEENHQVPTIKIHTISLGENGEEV

Rattus norvegicus = species on record: Rattus norvegicus; assay: Calcium antagonistic activity was evaluated by in vitro inhibition of [3H]nitrendipine binding on rat cerebral cortex; assay type: functional
[3] = molecular target: T2, Adrenergic receptor alpha-1; assay: Alpha-1-adrenolytic activity was assessed from the ability to inhibit [3H]prazosin binding to rat cerebral cortex preparation; assay type: tissue-based

Structure (SMILES) | IC50 [1] [nM] | IC50 (Sus scrofa) [nM] | IC50 [2] | IC50 (Rattus norvegicus) [nM] | IC50 [3] [nM]
COC(=O)C1=C(C)NC(C)=C(C(=O)OCCN(C)Cc2ccccc2)C1c1cccc([N+](=O)[O-])c1 (centres undefined) [NICARDIPINE] | 1400 | 0.3 | > 0.00001 M | 0.026 | 3600
CC1=NC(C)=C(C(=O)OCCN(C)CC2COc3ccccc3O2)C(c2cccc([N+](=O)[O-])c2)/C1=C(\O)OC(C)C.Cl (centres undefined) | 830 | 4 | >> 0.00003 M | 0.06 | 3500
COc1cc2nc(N3CCN(C(=O)c4ccco4)CC3)nc(N)c2cc1OC [PRAZOSIN] |  |  |  | 3000 | 
CO/C(O)=C1\C(C)=NC(C)=C(C(=O)OCCN(C)C[C@@H]2COc3ccccc3O2)[C@H]1c1cccc([N+](=O)[O-])c1.Cl | 19000 | 2.5 | >> 0.00001 M | 1 | 2000
COC(=O)C1=C(C)NC(C)=C(C(=O)OCCN(C)C[C@H]2COc3ccccc3O2)[C@@H]1c1cccc([N+](=O)[O-])c1.Cl (racemic) | 210 |  | 0.00003 M |  | 1900

Source: ChEMBL document CHEMBL1124620, “New 1,4-dihydropyridine derivatives combining calcium antagonism and alpha-adrenolytic properties” (J Med Chem, 1989)
